# Measured values reported in US20250177353A1 (priority 2021, published 2025).
# Where two headings read alike, the source gives them in different places.
# Assays:
# [1] = SAD phase I study: plasma pharmacokinetics of 2,4-dinitrophenol after Compound 1 (Table 3); type: in vivo, human; settings: for Vd/F: 500 mg, read-out: Vz/F, Median
# Procedure: A double-blind, placebo-controlled, phase I study of the safety and pharmacokinetics of single ascending doses of compound 1 in healthy volunteers was conducted. The volunteers were orally administered Compound 1 in doses ranging from 30 mg once daily (QD) to 1400 mg QD in a total of 67 subjects (50 active/17 placebo) across 8 cohorts.
# Screening procedures occurred on Days -28 to -3. For all Cohorts except Cohort 4 (Fed/Fasted), subjects were admitted to the clinical research unit for up to 4 days. […] Following completion of all safety assessments and blood draws for PK analyses, subjects were discharged on Day 3. The Fed/Fasted cohort remained in the unit and were discharged on Day 7.
# Double-blind dosing occurred in cohorts 1 through 8. In these cohorts, six subjects received Compound 1 and two received matching placebo. Doses escalated in the following sequence: 30, 100, 200, 500, 1400, 1050 and 600 mg. • Cohort 4 crossed-over to a fed state (50% fat meal) administration after pharmacokinetics and an inpatient washout had occurred for 72 hours after the first dose with a final dose.
# Subjects were admitted to the clinical research unit on Day 1. […] Blood draws for assessment of PK parameters occurred per schedule of assessments. IC were taken per schedule of assessments. Subjects were released on Day 3 following completion of all blood draws and safety assessments. The Fed/Fasted cohort remained in the unit and was discharged on Day 7.
# Compound 1 or matching placebo was administered orally as a single dose. All subjects except the fed cohort, were dosed in the morning after an 8-hour fast and remained in a semi-reclined position for 1 hour and fasting for 4 hours post-administration. Capsules were swallowed with 240 mL (8 fluid ounces) of room temperature water.
# Cohort 4 was a crossover food effect analysis. Subjects enrolled in Cohort 4 were dosed 30 minutes following the beginning of a standardized (consisting of 50% fat) meal (following a 10-hour fast) to evaluate for food effects. The study drug was administered with room temperature 240 mL (8 fluid ounces) of water.
# [2] = cited from earlier work
# [3] = human, in vivo, 500 mg
# [4] = MAD study: 2,4-dinitrophenol pharmacokinetics (accumulation, steady state); type: in vivo, human; settings: MAD cohort 1
# Procedure: A double-blind, sponsor-open, placebo-controlled, phase I study of the safety, pharmacokinetics and pharmacodynamics of multiple ascending doses of Compound 1 in high MBI volunteers was conducted. The first cohort of 10 healthy high body mass index (BMI) subjects has completed dosing at 200 mg Compound 1. Two more cohorts are also planned at doses of 400 and 550 mg QD.
# With once daily dosing, significant accumulation of 2,4-dinitrophenol is anticipated at steady state.
# [5] = single dose 30 mg Compound 1, Fasted
# [6] = single dose 100 mg Compound 1, Fasted
# [7] = single dose 200 mg Compound 1, Fasted
# [8] = single dose 500 mg Compound 1, Fasted
# [9] = single dose 500 mg Compound 1, Fed
# [10] = single dose 600 mg Compound 1, Fasted, Micronized
# [11] = single dose 1050 mg Compound 1, Fasted
# [12] = single dose 1050 mg Compound 1, Fasted, Micronized
# [13] = single dose 1400 mg Compound 1, Fasted, Micronized
compound,measurement,setting,value
"O=[N+]([O-])c1ccc(O)c([N+](=O)[O-])c1 [2,4-dinitrophenol]",Vd/F,"[1]; human, oral, single dose 500 mg Compound 1, Fasted",735 L
same,Vd/F,"[1]; human, oral, single dose 500 mg Compound 1, Fed",269 L
same,AUC(0-inf),"[1]; human, oral, single dose 500 mg Compound 1, Fed, read-out: AUCinf, Median",83800 ng·h/mL
same,half-life,"[1]; human, oral, single dose 500 mg Compound 1, Fed, read-out: t1/2, Median (converted)",31.2 h
same,"AUC0/24 h, Geometric Mean",[1]; [5],1440 ng·h/mL
same,"AUC0/24 h, Mean (SD)",[1]; [5],1500 (448) h*ng/ML
same,"AUC0/24 h, Median",[1]; [5],1500 ng·h/mL
same,"CL/F, Geometric Mean",[1]; [5],7.44 L/h
same,"CL/F, Mean (SD)",[1]; [5],8.04 (3.39) L/h
same,"CL/F, Median",[1]; [5],9.84 L/h
same,"AUC0/24 h, Geometric Mean",[1]; [6],4660 ng·h/mL
same,"AUC0/24 h, Mean (SD)",[1]; [6],4710 (711) h*ng/ML
same,"AUC0/24 h, Median",[1]; [6],4820 ng·h/mL
same,"CL/F, Geometric Mean",[1]; [6],7.61 L/h
same,"CL/F, Mean (SD)",[1]; [6],7.75 (1.70) L/h
same,"CL/F, Median",[1]; [6],7.87 L/h
same,"AUC0/24 h, Geometric Mean",[1]; [7],11100 ng·h/mL
same,"AUC0/24 h, Mean (SD)",[1]; [7],11200 (1970) h*ng/ML
same,"AUC0/24 h, Median",[1]; [7],10900 ng·h/mL
same,"CL/F, Geometric Mean",[1]; [7],6.12 L/h
same,"CL/F, Mean (SD)",[1]; [7],6.35 (1.79) L/h
same,"CL/F, Median",[1]; [7],7.19 L/h
same,"AUC%extrap, Median",[1]; [8],12.2%
same,"AUCinf/D, Median",[1]; [8],62.4 ng·h/mL/mg
same,"CL/F, Geometric Mean",[1]; [8],16.5 L/h
same,"CL/F, Mean (SD)",[1]; [8],17.7 (7.65) L/h
same,"CL/F, Median",[1]; [8],16.4 L/h
same,"AUC%extrap, Median",[1]; [9],6.56%
same,"AUCinf/D, Median",[1]; [9],168 ng·h/mL/mg
same,"CL/F, Median",[1]; [9],5.97 L/h
same,"λz, Median",[1]; [9],0.0222 h⁻¹
same,"CL/F, Geometric Mean",[1]; [10],2.80 L/h
same,"CL/F, Mean (SD)",[1]; [10],3.20 (1.62) L/h
same,"CL/F, Median",[1]; [10],2.74 L/h
same,"CL/F, Geometric Mean",[1]; [11],15.2 L/h
same,"CL/F, Mean (SD)",[1]; [11],16.8 (7.60) L/h
same,"CL/F, Median",[1]; [11],18.3 L/h
same,"CL/F, Geometric Mean",[1]; [12],2.20 L/h
same,"CL/F, Mean (SD)",[1]; [12],2.33 (0.715) L/h
same,"CL/F, Median",[1]; [12],2.50 L/h
same,"CL/F, Geometric Mean",[1]; [13],3.96 L/h
same,"CL/F, Mean (SD)",[1]; [13],4.12 (1.43) L/h
same,"CL/F, Median",[1]; [13],3.60 L/h
same,increase in RMR,"[2]; 2,4-dinitrophenol once daily 1-3 months (Tainter, Simkins)",20-40%
same,weight loss,"[2]; 2,4-dinitrophenol once daily 1-3 months",1.4-2.1 lbs./week
same,tolerability,"[2]; 2,4-dinitrophenol once daily over 1-3 months",well tolerated
same,"2,4-dinitrophenol concentrations associated with adverse increases in body temperatures",[2]; humans (Zhao 2015),"greater than 28,000 ng/ml"
same,AUC increase under fed conditions relative to fasted conditions,[3],> 2.0 fold
same,Cmax increase under fed conditions relative to fasted conditions,[3],> 1.8 fold
same,dose accumulation factor,[4]; Compound 1 200 mg QD for 14 days,approximately 3.5 fold
same,time to steady-state,[4]; Compound 1 200 mg daily dosing,7 days
